Consider 3 compounds from patent publication US7846671B2, “Methods of screening for agents that modulate the interaction of RGS and Gαq and urinary incontinence” (Bristol-Myers Squibb Company, priority 2002, dated 2010).

The target of assay [1] is T1, RGS7/Gq (Homo sapiens, UniProt P49802+P50148).
T1 sequence (P49802 1-469 isoform P49802-2): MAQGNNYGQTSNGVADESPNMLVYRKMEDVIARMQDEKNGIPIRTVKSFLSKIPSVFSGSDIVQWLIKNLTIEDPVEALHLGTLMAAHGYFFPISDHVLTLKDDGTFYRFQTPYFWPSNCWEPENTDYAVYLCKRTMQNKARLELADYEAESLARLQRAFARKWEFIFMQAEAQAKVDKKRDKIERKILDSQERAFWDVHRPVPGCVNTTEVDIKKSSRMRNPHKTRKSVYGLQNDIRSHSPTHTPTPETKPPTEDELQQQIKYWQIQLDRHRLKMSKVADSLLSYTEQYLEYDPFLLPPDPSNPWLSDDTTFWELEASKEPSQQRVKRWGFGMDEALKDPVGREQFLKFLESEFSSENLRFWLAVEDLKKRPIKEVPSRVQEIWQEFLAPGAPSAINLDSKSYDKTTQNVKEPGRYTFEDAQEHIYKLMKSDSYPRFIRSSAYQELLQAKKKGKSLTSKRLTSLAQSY
T1 sequence (P50148 1-359): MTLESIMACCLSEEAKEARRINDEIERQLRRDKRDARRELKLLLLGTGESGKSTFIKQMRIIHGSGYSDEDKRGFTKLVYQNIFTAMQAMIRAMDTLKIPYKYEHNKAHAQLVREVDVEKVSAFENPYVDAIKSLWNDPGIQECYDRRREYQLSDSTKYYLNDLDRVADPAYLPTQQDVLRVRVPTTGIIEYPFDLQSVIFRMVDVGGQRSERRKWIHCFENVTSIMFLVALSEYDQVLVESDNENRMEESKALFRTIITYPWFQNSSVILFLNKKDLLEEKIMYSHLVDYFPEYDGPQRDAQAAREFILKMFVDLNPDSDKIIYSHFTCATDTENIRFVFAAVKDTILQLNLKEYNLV
T1 sequence (O14775 43-395 partner limits assumed): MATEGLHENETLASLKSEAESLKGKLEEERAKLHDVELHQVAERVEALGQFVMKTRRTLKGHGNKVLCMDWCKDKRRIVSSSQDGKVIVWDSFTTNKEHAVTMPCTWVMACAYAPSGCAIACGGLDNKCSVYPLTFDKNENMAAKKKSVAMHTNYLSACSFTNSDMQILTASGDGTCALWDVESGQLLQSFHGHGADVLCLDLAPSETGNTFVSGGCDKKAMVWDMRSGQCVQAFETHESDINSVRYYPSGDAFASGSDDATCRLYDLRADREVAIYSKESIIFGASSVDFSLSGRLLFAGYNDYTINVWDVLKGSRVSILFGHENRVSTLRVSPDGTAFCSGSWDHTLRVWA
In words: Co-immunoprecipitation of Gq with RGS7 from transfected Hek 293 cells. Format: binding. Particulars: immunoprecipitation blot. The procedure: Hek 293 cells were transfected with CMV-G alpha qHA, CMV-mycRGS-7 and CMV-Gbeta5. 48 hours later the cells were harvested and lysed. Antibody to the myc epitope was utilized to immunoprecipitate RGS-7 in the presence or absence of ALF4-. The precipitated proteins were split into two fractions and loaded onto gels and western blotted on to nitrocellulose. In FIG. 6, the left blot (1) was probed with anti-myc antibody to detect RGS-7. RGS-7 was immunoprecipitated by the anti-myc antibody in the presence and absence of ALF4-. […] A G alpha q protein band was detected to have associated with RGS-7 and precipitated in the presence of ALF4- (lanes A) but not in the absence of ALF4- (lane B). In the second experiment, RGS-7 was immuno-precipitated again with the Myc epitope to which it was fused and the presence of G alpha q was detected in the presence or absence of ALF4- or different concentrations of Compound III. […] This increase in RGS-7 affinity would be predicted to be the same for other RGS7 family members such as RGS 6,9 and 11, as they have been shown previously to have similar affinities and effects on G alpha q. In addition this assay provides a method for screening for compounds that affect the interaction of RGS proteins and G alpha q.
In FIG. 5B, Compounds I, II and III affect the affinity of Gq and RGS proteins for one another. FIG. 5B is an immunoprecipitation blot of myc tagged RGS which has been probed with an anti hemagglutinin antibody to detect a hemagglutinin tagged Gαq. […] The ability of Compounds I, II and III to increase the affinity of Gq and RGS is a novel mechanism by which one can Gαq activity and such compounds and screens for additional compounds with such activity are useful wherever one desires to antagonize g protein signaling that involves Gαq and RGS proteins. […]

The test system of assay [2] is rat bladder strips. Nature of the assay: Isolated rat bladder strips: inhibition of carbachol-evoked contraction. The procedure:
Isolated Rat Bladder Strips
Male rats (Harlan, Sprague Dawley, 250-350 g) were sacrificed by decapitation, the bladder removed and cleaned of connective tissue. Strips of bladder were then cut from the bladder body and each was placed in an organ bath, suspended between a fixed hook and a force transducer, containing oxygenated physiological buffer (composition in mM: NaCl 118.4, KCl 4.7, KH2PO4 1.2, MgSO4 1.3, CaCl2 1.8, glucose 10.1, NaHCO3 25, gassed with 95%O2/5%CO2) and maintained at 37° C. Force generated by the bladder strips was recorded and measured using an AcqKnowledge data acquisition system (AcqKnowledge for MP100WS, Biopac Systems Inc., Goleta, Calif.).
The bladder strips were primed by stimulating them with 10 μM carbachol to evoke a contraction. The strips were then washed multiple times with fresh physiological buffer and allowed to fully relax. Following a period of recovery, the strips were again challenged with 10 μM carbachol to produce a contraction; this contractile response served as the control response. The strips were again washed multiple times and allowed to fully relax (45 minutes). Test compound or vehicle was then added to each organ bath. Following a one hour incubation period, the strips were again stimulated with 10 μM carbachol and the contractile response measured.
The percent inhibition of the carbachol response by the test compounds was calculated by comparing control and post-compound carbachol responses corrected for vehicle effects.

In assay [3] the test system is C. elegans. Nature of the assay: C. elegans compound treatment: neuromuscular and egg-laying phenotypes. How it is done: C. elegans strains were cultured and maintained according to standard procedures (Brenner, 1974; Hodgkin, 1988). All strains were assayed at 20° C. unless otherwise indicated. compound was mixed with killed bacteria slurry (strain OP50, taken through multiple freeze-thaw cycles) to 2× desired final concentration. Adult wildtype (Bristol N2) or mutant hermaphrodites were collected in M9. Worms were mixed 1:1 with compound/bacteria mixture, and plated on peptone-free NGM plates. Plates were allowed to dry, and then placed at 20° C. until assayed. For egg-laying assays, adults were treated overnight with compound. Approximately thirty animals were loaded onto agar pads made on glass slides and examined under Nomarski optics. Animals were scored as egg-laying defective if they contained>comma stage embryos.

Assay [4] deals with Gq signaling in Hek 293 kidney cells. Nature of the assay: [Ca2+]i measurement, carbachol-induced calcium signal in HEK 293 cells. Format: cell-based, human. The procedure:
• 1. HEK 293 or Clonetics primary human bladder smooth muscle cells were plated at a concentration of 7e3 cells/well in Poly-L lysine coated 96 well plates, white with clear bottoms (Costar). • 2. The plates are allowed to attach overnight at 37° C. 5%CO2. The cells were rinsed 2× with Krebs-HEPES buffer and then loaded with 4 uM Fluo4 (Molecular Probes) for 60 minutes in the same buffer containing 1% (wt/vol) Pluronic F-127 and 0.25 mM sulfinpyrazone. • 3. After loading the cells were rinsed 3× with Krebs-HEPES buffer containing 0.5% (wt/vol) BSA (Sigma Chemical) • 4. Buffer alone or buffer containing test compounds, was injected sequentially into separate wells and the fluorescence intensity monitored in a Victor2 96 well plate fluorometer (PE-Wallac). Measurements were taken at 1-s intervals using an excitation wavelength of 485 nm and emissions filter of 535 nm. • 5. Five baseline measurements were taken at 1-s intervals prior to each injection (see FIGS. 4A and 4B).
Calcium assays were run by standard protocols as described above and in Zhu et al., 1998, J. Biol Chem 273:133-142. It is known that calcium signals in response to carbachol have both a Gq and a Go/Gi signaling component. Pertussis toxin is a known inhibitor of Go/Gi signaling in cells. We asked the question if Compound I was inhibiting Gq or Go/Gi signals in Hek 293 kidney cells. […] to block the Go/I but not Gq signals. […] If however Compound I were inhibiting Gq signal specifically, then we would expect the combination of pertussis toxin (hitting Go/Gi) and Gq.

“Also recorded” adds a separate entry of the source.

For Alf4- [reference compound], the “Affinity of RGS7 and Gq (Gq co-precipitated with myc-RGS-7)” value (“Affinity of RGS7 and Gq” below) in assay [1] is “increases its affinity with RGS”.
As a reminder, the inhibition is the drop in the measured response relative to a control, in per cent. As for `O=c1[nH]c(-c2ccc(C(F)(F)F)cc2)nn1-c1cc(Cl)ccc1O` [Compound I], in assay [2], the “Relaxation of bladder smooth muscle strips contracted with carbachol” value is “capable of relaxing strips of bladder smooth muscle”. The inhibition at 10 µM in assay [2] (Rattus norvegicus, 10 μM compound, 1 h incubation, 10 μM carbachol, read-out: Inhibition of the carbachol response) lay in the range of 40 to 60%. Also, in assay [3], the “Neuromuscular defects (pharyngeal pumping, body movement, egg-laying)” value is “causes neuromuscular defects”. Moreover, in assay [4], the “Carbachol induced calcium influxes” value is recorded as “blocked”; the “Combined effect with pertussis toxin on carbachol calcium signal” value was “cumulative”; the “Effect on function of human RGS and Gq signaling proteins via Ca++ signaling” value is “clearly able to effect the function of Gq and RGS”. Further, the “Gq versus Go/Gi specificity of calcium signal inhibition” value in assay [4] (carbachol) was “specifically inhibiting Gq signaling and not Go/Gi”. In assay [1], the “Affinity of RGS7 and Gq” value is on record as “increase the affinity of RGS7 with Gq; also recorded: clearly increase the affinity of Gq for RGS”.
As for `O=c1[nH]c(-c2ccc(Br)s2)nn1-c1cc(Cl)c(Br)cc1O` [Compound II, 2-(4-bromo-5-chloro-2-hydroxyphenyl)-2,4-dihydro-5-(5-bromothien-2-yl)-3H-1,2,4-triazol-3-one], the inhibition at 3 µM in assay [2] (Rattus norvegicus, 3 μM compound, 1 h incubation, 10 μM carbachol, read-out: Inhibition of the carbachol response) lay in the range of 20 to 40%. Besides, the “Carbachol induced calcium influxes” value in assay [4] is “blocked”. Besides, in assay [1], the “Affinity of RGS7 and Gq” value is reported as “clearly increase the affinity of Gq for RGS”.
